Activity calls are given as the source filed them.
Experiments:
[1] = target: Luciferin 4-monooxygenase (Photinus pyralis, UniProt P08659); test: firefly luciferase enzyme inhibitors, dose response, biochemical, luminescence (AID 1891)
[2] = Luminescence Cell-Based Dose Confirmation HTS to Identify Inhibitors of Platelet Dense Granule Release. [Related pubchem assays: 1663 (Primary HTS), 1678 (Summary of Project)]; format: functional
[3] = inhibitors of SNCA 5'UTR-driven reporter translation, confirmation, H4 neuroglioma cells, luminescence (AID 1988); format: functional, cell-based
[4] = Luminescence Cell-Based Dose Response HTS to Identify Inhibitors of 5'UTR Stem-Loop Driven Prion Protein mRNA Translation in H4 Neuroglioblastoma Cells. [Related pubchem assays: 1827 (Project Summary), 1813 (Primary HTS)]; format: functional
[5] = inhibitors of firefly luciferase expression or activity, dose response, H4 neuroglioma cells, luminescence (AID 1990); format: functional, cell-based
[6] = Luminescence Cell-Based Dose Retest to Confirm Inhibitors of Cancer Stem Cells. [Related pubchem assays (depositor defined):AID2717, AID2721]; format: functional; settings: Homo sapiens
[7] = HEp-2 cell cytotoxicity, dose response, cytotoxicity control for RSV inhibitor project, HTS (AID 2410); format: functional; settings: human respiratory syncytial virus
[8] = cytotoxicity toward NIH3T3 fibroblasts, dose response, counter-screen, cell-based, ATP luminescence, mouse fibroblasts (AID 2010); format: functional;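 note: cells exposed to compound for about 90 hours before reading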
[9] = inhibitors of intracellular T. cruzi replication, confirmation, NIH3T3 host cells, beta-gal luminescence (AID 2044); format: functional, cell-based;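 note: intracellular parasites grown in NIH/3T3 mouse fibroblasts as host cells; luminescent beta-galactosidase reporter signal from transgenic T. cruzi replicating inside host cells; inhibitors lower the luminescence signal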
Streptococcus = test: Group A Streptococcus viability loss, dose response, counter-screen for streptokinase expression inhibitor project, luminescence, BacTiterGlo (AID 1915); format: functional, organism-based;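 note: potency for reduction of bacterial viability or growth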
[10] = system: Streptococcus sp. 'group A'; test: growth inhibition of control SK(-) GAS strain, dose response, counter-screen for streptokinase expression inhibitor project, luminescence, kanamycin, BacTiterGlo, confirmation (AID 1900); format: functional, organism-based
Streptokinase A = target: T1, Streptokinase A (Streptococcus pyogenes serotype M1, UniProt P10520); test: S. pyogenes streptokinase expression inhibitors, potency, dose response, plasminogen activation absorbance, OD405 (AID 1914); format: functional, Streptococcus pyogenes M1 GAS;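 note: secreted streptokinase activity via plasminogen activation per viability signal from cell pellet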
T1 sequence (P10520 whole entry): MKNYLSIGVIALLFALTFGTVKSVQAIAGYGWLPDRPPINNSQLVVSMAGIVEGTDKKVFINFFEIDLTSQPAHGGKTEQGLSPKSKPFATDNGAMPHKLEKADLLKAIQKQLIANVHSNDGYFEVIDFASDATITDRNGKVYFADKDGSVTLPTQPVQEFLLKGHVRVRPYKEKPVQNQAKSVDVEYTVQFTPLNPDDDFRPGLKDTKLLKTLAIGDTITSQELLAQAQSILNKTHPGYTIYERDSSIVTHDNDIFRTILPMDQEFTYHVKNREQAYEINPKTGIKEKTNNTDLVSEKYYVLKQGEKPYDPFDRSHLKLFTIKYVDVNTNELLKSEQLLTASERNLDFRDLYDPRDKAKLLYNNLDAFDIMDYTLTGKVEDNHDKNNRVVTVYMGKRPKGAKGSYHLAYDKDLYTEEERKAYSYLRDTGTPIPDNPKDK

cells [11] = format: functional, cell-based
cells [12] = format: functional, cell-based; remark: listed apart in the source
Cytochrome P450 2C9 = Cytochrome P450 2C9 (Homo sapiens, UniProt P11712)
Cytochrome P450 2C19 = Cytochrome P450 2C19 (Homo sapiens, UniProt P33261); test: Cytochrome panel assay with activity outcomes. Panel member name: p450-cyp2c19 Compounds with AC50 equal or less than 10 uM are considered active; format: functional; settings: read-out: AC50
Cytochrome P450 2D6 = Cytochrome P450 2D6 (Homo sapiens, UniProt P10635);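 note: CYP2D6 member of a cytochrome P450 panel assay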
[13] = target: T2, Replicative DNA helicase DnaB (Mycobacterium tuberculosis, UniProt P9WMR3); test: DnaB intein splicing inhibitors, dose response, biochemical, cell-free fluorescence (AID 449749); format: functional
T2 sequence (P9WMR3 whole entry): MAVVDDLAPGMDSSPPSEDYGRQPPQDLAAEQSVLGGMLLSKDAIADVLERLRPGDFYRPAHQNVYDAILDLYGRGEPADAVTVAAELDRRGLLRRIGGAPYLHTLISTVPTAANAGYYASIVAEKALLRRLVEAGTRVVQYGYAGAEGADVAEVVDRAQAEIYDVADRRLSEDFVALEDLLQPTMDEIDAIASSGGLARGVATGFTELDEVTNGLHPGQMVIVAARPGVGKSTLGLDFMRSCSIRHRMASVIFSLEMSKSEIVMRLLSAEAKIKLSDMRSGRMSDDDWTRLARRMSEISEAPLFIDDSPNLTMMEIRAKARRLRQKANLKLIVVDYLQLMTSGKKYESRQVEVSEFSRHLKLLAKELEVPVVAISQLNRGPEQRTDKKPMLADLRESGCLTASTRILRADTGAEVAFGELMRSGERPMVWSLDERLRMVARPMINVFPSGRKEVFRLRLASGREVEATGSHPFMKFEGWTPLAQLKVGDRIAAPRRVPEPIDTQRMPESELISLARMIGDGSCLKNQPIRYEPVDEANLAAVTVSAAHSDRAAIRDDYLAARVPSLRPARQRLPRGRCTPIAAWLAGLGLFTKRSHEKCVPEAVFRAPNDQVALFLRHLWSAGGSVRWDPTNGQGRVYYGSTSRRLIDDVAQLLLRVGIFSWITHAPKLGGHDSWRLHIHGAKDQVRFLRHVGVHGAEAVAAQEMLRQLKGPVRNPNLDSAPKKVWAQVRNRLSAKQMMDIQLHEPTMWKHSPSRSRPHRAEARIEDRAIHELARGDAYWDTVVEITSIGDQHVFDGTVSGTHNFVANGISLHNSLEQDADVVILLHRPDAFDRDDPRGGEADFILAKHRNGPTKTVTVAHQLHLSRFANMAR

Protein RecA = target: T3, Protein RecA (Mycobacterium tuberculosis, UniProt P9WHJ3); test: Fluorescence Cell-Free Homogeneous Dose Retest to Identify Inhibitors of RecA-Intein Splicing Activity. [Related pubchem assays (depositor defined):AID2097, AID2223, AID489010, AID492950]; format: functional
T3 sequence (P9WHJ3 whole entry): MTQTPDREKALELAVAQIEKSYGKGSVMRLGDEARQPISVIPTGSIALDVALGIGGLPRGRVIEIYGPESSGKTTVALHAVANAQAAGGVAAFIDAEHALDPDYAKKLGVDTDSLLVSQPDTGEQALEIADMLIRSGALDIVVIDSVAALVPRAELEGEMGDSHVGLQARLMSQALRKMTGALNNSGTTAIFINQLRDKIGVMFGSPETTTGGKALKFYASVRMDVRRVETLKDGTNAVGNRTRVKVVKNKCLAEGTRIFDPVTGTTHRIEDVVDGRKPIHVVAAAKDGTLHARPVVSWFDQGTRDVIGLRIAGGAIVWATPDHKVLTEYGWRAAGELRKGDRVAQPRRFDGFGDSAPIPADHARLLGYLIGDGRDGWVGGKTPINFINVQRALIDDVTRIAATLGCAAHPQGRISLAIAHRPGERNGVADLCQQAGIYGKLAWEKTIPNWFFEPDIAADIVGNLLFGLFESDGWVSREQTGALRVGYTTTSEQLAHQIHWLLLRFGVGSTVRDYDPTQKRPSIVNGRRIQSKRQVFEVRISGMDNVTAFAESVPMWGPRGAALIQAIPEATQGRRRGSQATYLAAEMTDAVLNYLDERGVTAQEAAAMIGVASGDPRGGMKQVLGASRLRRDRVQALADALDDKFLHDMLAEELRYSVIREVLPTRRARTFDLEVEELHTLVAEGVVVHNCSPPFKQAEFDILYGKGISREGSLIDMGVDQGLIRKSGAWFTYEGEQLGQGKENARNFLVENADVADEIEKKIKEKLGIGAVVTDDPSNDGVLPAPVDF

Luciferin 4-monooxygenase, sequence (P08659 whole entry): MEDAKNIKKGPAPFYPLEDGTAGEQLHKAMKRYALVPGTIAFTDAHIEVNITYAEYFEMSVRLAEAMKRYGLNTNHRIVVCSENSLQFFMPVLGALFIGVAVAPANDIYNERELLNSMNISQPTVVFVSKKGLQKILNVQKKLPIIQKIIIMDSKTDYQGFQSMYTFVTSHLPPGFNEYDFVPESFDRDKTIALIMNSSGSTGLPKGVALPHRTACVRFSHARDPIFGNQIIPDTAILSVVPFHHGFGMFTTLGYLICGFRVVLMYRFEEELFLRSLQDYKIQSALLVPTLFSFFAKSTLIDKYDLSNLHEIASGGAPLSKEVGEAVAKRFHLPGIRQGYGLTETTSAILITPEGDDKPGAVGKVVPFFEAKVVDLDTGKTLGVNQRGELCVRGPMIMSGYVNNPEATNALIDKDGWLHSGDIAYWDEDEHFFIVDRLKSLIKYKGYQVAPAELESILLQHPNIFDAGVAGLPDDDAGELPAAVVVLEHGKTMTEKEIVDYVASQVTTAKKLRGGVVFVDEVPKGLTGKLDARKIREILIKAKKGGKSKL
Cytochrome P450 2D6, sequence (P10635 whole entry): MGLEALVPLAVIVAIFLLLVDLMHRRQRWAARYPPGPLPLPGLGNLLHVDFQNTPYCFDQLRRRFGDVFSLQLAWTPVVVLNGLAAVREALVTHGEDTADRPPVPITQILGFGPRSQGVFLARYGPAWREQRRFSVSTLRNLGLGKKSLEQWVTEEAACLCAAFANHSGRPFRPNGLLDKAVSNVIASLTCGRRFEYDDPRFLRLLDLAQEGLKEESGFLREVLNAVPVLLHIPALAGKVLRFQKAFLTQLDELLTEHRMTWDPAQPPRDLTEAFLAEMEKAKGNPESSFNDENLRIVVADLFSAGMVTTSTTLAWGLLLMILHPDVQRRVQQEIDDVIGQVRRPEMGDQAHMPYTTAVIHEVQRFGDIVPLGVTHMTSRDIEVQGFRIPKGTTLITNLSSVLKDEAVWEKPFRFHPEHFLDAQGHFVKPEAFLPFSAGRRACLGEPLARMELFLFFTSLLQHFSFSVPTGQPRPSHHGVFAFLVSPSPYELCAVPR
Cytochrome P450 2C19, sequence (P33261 whole entry): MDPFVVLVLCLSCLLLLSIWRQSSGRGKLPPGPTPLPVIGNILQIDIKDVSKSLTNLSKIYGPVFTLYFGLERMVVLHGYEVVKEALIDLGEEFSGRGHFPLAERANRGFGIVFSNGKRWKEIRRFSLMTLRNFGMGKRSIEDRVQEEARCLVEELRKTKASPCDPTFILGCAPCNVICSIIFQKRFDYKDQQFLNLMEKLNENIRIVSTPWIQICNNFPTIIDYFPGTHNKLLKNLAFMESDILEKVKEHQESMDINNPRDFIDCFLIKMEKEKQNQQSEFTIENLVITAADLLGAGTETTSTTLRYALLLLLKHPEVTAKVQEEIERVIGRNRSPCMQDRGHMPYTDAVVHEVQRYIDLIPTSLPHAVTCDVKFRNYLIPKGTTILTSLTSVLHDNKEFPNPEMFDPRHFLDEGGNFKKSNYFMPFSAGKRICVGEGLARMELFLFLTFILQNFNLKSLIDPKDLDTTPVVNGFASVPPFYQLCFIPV
Cytochrome P450 2C9, sequence (P11712 whole entry): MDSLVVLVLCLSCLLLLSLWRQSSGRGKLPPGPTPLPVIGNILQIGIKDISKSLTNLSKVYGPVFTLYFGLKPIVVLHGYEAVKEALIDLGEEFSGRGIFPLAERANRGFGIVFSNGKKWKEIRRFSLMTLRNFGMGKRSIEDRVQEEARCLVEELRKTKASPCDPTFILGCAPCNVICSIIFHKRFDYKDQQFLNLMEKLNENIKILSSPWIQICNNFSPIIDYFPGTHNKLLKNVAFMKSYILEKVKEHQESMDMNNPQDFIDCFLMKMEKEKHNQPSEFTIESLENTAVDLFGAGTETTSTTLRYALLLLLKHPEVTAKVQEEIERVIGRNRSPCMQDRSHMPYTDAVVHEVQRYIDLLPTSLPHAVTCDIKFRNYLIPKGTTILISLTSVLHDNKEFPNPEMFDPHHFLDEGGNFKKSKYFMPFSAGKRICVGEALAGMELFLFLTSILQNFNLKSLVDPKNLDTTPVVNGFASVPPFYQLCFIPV

CN(C(=O)c1cc(S(=O)(=O)N2CCc3ccccc32)cn1C)C1CCCCC1
EC50 [1]: > 112 µM (not active)
EC50 [2]: > 112 µM (not active)

CCOC(=O)C1=C(CN2CCN(C(=O)c3ccco3)CC2)NC(=O)NC1c1ccccc1 (stereo unspecified)
EC50 [3]: > 120 µM (not active)
EC50 [4]: > 120 µM (not active)
EC50 [5]: 42.2 µM (active)

C=CCOc1cccc(/C=C2\C(=O)N(Cc3ccc(C)cc3)C(C)=C2C(=O)OC)c1
AC50 [6]: 5.38 µM (active)
CC50 [7]: 29.7 µM (active)

Cc1ccc(C#CC[N+](C)(C)CC#Cc2ccccc2)cc1
EC50 [8]: > 60 µM (not active)
EC50 [3]: > 120 µM (not active)
EC50 [9]: 1.92 µM (active)
EC50 [4]: > 120 µM (not active)
EC50 [5]: > 120 µM (not active)

CCc1cccc(NC2c3ccccc3C(=O)N2c2cccnc2)c1 (stereo unspecified)
EC50 [1]: > 112 µM (not active)
EC50 [2]: > 112 µM (not active)

Cc1cnc(C)c(N2CCN(Cc3nc(-c4ccccc4)no3)CC2)n1
EC50 [1]: > 112 µM (not active)
EC50 [2]: > 112 µM (not active)

CC(C)CC(=O)Nc1cccc(-c2csc(-c3ccccc3)n2)c1
CC50 [7]: 17.9 µM (active)

Cc1ccc2c(CSc3nc4ccccc4c(=O)n3CCCO)cc(=O)oc2c1C
CC50 [7]: 30.5 µM (active)

CCCCOC(=O)c1ccc(NC(=S)N2CCN(c3ncc4c(=O)c(C(=O)O)cn(CC)c4n3)CC2)cc1
EC50 (Streptococcus): 2.62 µM (active)
EC50 [10]: 0.801 µM (active)
EC50 (Streptokinase A): > 150 µM (not active)

Cc1c(N=C2N=C(NC(=O)c3cccs3)c3ccccc32)c(=O)n(-c2ccccc2)n1C
CC50 [7]: 18.7 µM (active)

O=C1CSCN1c1ccc(Cl)cc1
EC50 (cells [11]): > 350 µM (not active)
EC50 (cells [12]): > 350 µM (not active)

O=C(O)C1C2CCC(C2)C1C(=O)Nc1ccccc1 (stereo unspecified)
EC50 [1]: > 112 µM (not active)
EC50 [2]: > 112 µM (not active)

CC1CCCC(C)N1C(=O)COC(=O)CNC(=O)c1sc2ccccc2c1Cl (stereo unspecified)
EC50 [1]: > 112 µM (not active)
EC50 [2]: > 112 µM (not active)

CCOC(=O)CNC(=O)CSc1nnc(Cn2cnc3ccccc32)n1C
EC50 (cells [11]): > 350 µM (not active)
EC50 (cells [12]): > 350 µM (not active)

COc1ccc2c(c1)CCc1cnc(N)nc1-2
CC50 [7]: 24.4 µM (active)

C1CCC2(CC1)C1=C(CCCC1)Nc1nnnn12
EC50 (cells [11]): > 350 µM (not active)
EC50 (cells [12]): > 350 µM (not active)

COCCNC(=O)Nc1ccc2nc(-c3cccs3)c(-c3cccs3)nc2c1
CC50 [7]: 33.1 µM (active)

Cn1c(SCC(=O)NC2(C#N)CCCCC2)nnc1-c1cccnc1
EC50 (Streptococcus): > 150 µM (not active)
EC50 [10]: > 150 µM (not active)
EC50 (Streptokinase A): > 150 µM (not active)

Cc1cc(C)n(-c2nc3ccccc3c(=O)n2OCC(=O)OCc2ccccc2)n1
EC50 [3]: > 120 µM (not active)
EC50 [4]: 17.6 µM (active)
EC50 [5]: 19.3 µM (active)

O=C(N1CCN(Cc2ccccc2)CC1)C12CC3CC(CC(C3)C1)C2
EC50 [1]: > 112 µM (not active)
EC50 [2]: > 112 µM (not active)

Cc1ccc(/C=C/C(=O)c2nc3ccccc3[nH]2)cc1
AC50 (Cytochrome P450 2C9): 7.94 µM (inconclusive)
CC50 [7]: 46.1 µM (active)
AC50 (Cytochrome P450 2C19): 0.0158 µM (inconclusive)
AC50 (Cytochrome P450 2D6): 28.2 µM (inconclusive)

N=C(NOC(=O)c1ccc(Cl)cc1)c1ccccn1
EC50 [1]: 1.53 µM (active)
CC50 [7]: 16.4 µM (active)
EC50 [2]: 7.38 µM (active)

Cc1ccc(CN=C(N)Nc2nc(C)cc(C)n2)cc1
EC50 [3]: 7.78 µM (active)
EC50 [4]: 9.36 µM (active)
EC50 [5]: > 120 µM (not active)

O=C(c1ccco1)c1cn(CC(=O)N2CCCc3ccccc32)c2ccccc12
EC50 [1]: > 112 µM (not active)
EC50 [2]: > 112 µM (not active)

Cc1ccc(CNC(=O)C2CCN(S(=O)(=O)c3ccc4c(c3)CC(C)N4C(=O)C3CCC3)CC2)o1 (stereo unspecified)
EC50 [3]: 12.3 µM (active)
EC50 [4]: > 120 µM (not active)
EC50 [5]: 13 µM (active)

O=C(CN(Cc1ccccc1Cl)C(=O)c1ccc(CN2CCOCC2)o1)NCc1ccccc1
EC50 [1]: > 112 µM (not active)
EC50 [2]: 62.6 µM (active)

CC(=O)c1ccc(NC2CC(O)C(O)CO2)cc1 (stereo unspecified)
EC50 [3]: 16.1 µM (active)
EC50 [4]: > 120 µM (not active)
EC50 [5]: > 120 µM (not active)

Nc1cccc(-c2nc3ccc(N)cc3s2)c1
EC50 [1]: 2.3 µM (active)
EC50 [2]: < 0.701 µM (active)

CCOC(=O)COc1cccc2c(=O)n(CC(=O)N3CCN(C(=O)OCC)CC3)ccc12
EC50 [1]: > 112 µM (not active)
EC50 [2]: > 112 µM (not active)

CC(C)c1ccc(NC(=O)C2CCCN(S(=O)(=O)c3ccc4c(c3)C(C)(C)C(=O)N4C)C2)cc1 (stereo unspecified)
CC50 [7]: 17.6 µM (active)

Cc1ccc2c(c1)-c1c(ssc1=S)C(C)(C)N2C(=O)CSc1nncn1C
EC50 [3]: > 120 µM (not active)
AC50 [13]: 6.63 µM (active)
EC50 [4]: > 120 µM (not active)
EC50 (Protein RecA): 9.47 µM (active)
EC50 [5]: 46.1 µM (active)

CCOC(=O)N1CCC(/N=c2/c(-c3ccccc3)c(O)c2=O)CC1
EC50 (cells [11]): > 350 µM (not active)
EC50 (cells [12]): > 350 µM (not active)

O=C(N/N=C/c1ccccn1)c1ccc(Br)cc1
EC50 (cells [11]): > 350 µM (not active)
EC50 (cells [12]): 15.2 µM (active)

From ChEMBL document CHEMBL1201862, “PubChem BioAssay data set” (2004)
